Reference: ChEMBL document CHEMBL1149107, “Structure-activity relationships of potent, selective inhibitors of neuronal nitric oxide synthase based on the 6-phenyl-2-aminopyridine structure” (J Med Chem, 2004)

What was measured:
Nitric oxide synthase 1 [1] = target: Nitric oxide synthase 1 (Rattus norvegicus, UniProt P29476); assay: In vitro inhibition of rat neuronal nitric oxide synthase
[2] = target: Nitric oxide synthase, inducible (Homo sapiens, UniProt P35228); assay: In vitro inhibition of human inducible nitric oxide synthase
Nitric oxide synthase 1 [3] = target: Nitric oxide synthase 1 (Homo sapiens, UniProt P29475); assay: In vitro inhibition of human neuronal nitric oxide synthase
Nitric oxide synthase 3 = target: T1, Nitric oxide synthase 3 (Homo sapiens, UniProt P29474); assay: In vitro inhibition of human endothelial nitric oxide synthase
T1 sequence (P29474 whole entry): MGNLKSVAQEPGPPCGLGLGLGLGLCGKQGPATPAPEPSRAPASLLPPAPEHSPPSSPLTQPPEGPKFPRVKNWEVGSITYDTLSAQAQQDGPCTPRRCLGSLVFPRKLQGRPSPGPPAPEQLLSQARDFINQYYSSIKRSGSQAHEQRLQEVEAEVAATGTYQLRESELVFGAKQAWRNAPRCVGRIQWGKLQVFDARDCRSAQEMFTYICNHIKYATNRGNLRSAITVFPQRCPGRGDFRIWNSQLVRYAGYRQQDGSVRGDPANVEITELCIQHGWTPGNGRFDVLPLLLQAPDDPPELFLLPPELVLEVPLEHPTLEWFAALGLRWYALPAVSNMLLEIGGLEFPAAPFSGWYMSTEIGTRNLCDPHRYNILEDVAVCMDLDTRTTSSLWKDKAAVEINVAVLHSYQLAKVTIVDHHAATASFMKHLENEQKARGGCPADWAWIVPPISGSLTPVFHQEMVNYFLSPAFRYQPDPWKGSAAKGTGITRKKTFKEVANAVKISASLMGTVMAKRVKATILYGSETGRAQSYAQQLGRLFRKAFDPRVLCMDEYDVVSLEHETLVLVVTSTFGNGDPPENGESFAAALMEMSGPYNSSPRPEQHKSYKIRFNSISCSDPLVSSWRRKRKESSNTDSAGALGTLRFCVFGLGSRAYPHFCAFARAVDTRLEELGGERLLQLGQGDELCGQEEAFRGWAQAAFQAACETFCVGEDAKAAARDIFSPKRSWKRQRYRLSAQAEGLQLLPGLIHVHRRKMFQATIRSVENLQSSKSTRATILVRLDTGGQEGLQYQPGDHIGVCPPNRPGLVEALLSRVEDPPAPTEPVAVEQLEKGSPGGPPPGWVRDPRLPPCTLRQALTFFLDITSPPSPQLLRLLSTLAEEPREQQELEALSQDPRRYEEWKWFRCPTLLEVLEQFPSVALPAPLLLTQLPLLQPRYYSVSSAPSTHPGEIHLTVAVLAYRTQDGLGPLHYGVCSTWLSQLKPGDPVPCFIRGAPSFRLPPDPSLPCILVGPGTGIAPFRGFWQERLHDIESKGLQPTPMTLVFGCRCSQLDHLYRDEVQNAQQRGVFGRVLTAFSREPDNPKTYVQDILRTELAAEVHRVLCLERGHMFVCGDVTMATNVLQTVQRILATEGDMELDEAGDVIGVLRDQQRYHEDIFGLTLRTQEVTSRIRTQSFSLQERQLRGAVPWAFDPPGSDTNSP

Chain of Nitric oxide synthase, inducible (P35228 whole entry): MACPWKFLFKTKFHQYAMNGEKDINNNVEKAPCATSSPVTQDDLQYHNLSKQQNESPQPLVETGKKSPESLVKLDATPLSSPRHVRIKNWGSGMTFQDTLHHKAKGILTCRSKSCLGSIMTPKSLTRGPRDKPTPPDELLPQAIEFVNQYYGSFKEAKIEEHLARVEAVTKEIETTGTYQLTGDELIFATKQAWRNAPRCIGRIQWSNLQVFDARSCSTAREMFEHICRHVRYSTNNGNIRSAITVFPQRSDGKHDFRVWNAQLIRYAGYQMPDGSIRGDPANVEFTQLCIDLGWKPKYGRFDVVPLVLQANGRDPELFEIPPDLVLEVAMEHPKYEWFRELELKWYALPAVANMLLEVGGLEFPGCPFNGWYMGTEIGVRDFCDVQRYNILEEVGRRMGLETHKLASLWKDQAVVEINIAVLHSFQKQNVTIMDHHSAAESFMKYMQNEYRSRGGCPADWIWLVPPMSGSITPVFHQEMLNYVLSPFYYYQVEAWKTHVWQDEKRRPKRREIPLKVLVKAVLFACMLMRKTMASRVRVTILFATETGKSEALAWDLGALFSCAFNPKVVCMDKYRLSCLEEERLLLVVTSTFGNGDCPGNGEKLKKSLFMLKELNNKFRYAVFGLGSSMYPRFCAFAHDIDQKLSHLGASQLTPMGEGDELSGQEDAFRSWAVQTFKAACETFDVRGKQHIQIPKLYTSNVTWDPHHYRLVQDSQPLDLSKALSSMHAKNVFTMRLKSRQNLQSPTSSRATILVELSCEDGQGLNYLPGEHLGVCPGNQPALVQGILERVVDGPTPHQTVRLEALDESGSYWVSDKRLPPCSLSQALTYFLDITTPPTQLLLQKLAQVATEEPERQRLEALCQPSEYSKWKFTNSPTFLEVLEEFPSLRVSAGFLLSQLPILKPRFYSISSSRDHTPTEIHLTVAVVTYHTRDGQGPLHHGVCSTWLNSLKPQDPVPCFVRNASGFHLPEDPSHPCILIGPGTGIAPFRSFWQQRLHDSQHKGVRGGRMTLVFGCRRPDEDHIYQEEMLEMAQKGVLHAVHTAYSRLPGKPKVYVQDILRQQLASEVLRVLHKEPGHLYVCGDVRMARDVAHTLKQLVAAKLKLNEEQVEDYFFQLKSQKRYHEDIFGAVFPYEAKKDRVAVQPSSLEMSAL
Chain of Nitric oxide synthase 1 (Homo sapiens, UniProt P29475) (P29475 whole entry): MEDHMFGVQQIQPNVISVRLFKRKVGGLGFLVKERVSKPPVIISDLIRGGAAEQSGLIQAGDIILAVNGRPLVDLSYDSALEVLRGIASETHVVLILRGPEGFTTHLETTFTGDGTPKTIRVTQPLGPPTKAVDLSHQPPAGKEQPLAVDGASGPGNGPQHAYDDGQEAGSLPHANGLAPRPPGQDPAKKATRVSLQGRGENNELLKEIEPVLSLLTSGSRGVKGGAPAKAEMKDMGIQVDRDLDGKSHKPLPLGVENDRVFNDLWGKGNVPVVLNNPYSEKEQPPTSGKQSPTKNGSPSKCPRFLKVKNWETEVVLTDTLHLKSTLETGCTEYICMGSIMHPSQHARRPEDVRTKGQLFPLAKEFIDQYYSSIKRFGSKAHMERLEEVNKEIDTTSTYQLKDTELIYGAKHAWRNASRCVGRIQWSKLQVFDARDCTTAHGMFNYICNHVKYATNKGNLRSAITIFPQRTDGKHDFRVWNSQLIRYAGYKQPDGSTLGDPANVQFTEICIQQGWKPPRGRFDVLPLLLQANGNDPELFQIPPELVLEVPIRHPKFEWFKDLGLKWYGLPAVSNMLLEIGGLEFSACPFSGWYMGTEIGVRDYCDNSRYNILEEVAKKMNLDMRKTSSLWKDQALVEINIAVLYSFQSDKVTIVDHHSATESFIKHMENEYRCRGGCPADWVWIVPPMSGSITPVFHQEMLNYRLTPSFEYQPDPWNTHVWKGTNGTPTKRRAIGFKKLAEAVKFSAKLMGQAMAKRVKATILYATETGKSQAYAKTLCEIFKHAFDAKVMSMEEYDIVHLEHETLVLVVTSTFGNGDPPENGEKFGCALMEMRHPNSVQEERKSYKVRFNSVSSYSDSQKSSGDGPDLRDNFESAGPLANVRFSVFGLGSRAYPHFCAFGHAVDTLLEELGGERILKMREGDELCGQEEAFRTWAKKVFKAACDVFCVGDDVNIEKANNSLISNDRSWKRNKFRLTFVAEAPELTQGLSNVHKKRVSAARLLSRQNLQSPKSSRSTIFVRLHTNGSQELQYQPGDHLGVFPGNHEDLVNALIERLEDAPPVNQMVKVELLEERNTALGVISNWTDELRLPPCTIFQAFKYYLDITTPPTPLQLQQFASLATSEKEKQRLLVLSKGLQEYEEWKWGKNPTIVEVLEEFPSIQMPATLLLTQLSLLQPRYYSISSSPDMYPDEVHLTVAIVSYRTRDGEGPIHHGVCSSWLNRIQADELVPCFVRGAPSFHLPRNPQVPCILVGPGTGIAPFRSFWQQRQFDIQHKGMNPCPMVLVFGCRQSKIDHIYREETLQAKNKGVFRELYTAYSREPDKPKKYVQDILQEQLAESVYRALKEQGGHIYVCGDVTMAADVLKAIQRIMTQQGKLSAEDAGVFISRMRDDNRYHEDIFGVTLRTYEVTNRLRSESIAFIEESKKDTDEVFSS
Chain of Nitric oxide synthase 1 (Rattus norvegicus, UniProt P29476) (P29476 whole entry): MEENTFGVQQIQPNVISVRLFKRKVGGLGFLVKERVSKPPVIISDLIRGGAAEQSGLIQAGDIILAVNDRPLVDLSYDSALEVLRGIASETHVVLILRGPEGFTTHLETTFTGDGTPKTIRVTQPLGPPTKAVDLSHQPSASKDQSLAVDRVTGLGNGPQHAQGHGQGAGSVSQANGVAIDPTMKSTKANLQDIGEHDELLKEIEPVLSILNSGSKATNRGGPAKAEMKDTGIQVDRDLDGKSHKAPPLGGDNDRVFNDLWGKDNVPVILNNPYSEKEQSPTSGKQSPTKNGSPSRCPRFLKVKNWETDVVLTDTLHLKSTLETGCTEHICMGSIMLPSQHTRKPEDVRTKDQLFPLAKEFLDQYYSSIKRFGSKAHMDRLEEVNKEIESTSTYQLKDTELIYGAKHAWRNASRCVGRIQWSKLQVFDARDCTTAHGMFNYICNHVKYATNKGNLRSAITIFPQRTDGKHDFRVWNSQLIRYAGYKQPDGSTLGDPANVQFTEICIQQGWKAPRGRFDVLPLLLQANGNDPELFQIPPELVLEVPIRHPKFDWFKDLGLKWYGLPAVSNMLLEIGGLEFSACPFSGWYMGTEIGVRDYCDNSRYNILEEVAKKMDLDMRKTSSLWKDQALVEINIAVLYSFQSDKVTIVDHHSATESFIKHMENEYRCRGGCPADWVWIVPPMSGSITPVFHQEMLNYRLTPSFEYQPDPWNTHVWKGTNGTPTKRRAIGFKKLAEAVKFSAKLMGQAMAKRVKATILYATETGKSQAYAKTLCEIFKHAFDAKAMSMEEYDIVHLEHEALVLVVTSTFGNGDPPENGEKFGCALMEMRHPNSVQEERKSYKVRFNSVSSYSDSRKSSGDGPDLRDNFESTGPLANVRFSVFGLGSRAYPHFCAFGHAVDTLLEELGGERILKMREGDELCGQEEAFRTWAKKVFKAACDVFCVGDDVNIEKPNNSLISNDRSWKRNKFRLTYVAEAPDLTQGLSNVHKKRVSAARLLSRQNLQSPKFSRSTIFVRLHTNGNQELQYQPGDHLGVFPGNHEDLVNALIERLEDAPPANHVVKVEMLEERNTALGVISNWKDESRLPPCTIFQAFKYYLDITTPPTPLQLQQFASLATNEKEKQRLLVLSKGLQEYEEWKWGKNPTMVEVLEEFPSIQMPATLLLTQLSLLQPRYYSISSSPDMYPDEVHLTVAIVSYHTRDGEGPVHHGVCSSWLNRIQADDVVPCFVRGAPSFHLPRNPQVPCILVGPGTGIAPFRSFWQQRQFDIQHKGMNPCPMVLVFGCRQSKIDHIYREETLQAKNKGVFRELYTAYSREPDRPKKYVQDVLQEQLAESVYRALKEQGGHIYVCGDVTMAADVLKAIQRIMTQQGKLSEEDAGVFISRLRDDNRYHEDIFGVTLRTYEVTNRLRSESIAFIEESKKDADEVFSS

Work on `Nc1cccc(-c2ccc(OCCN3CCCC3)c3c2CCC3)n1` yielded an IC50 (Nitric oxide synthase 1 [1]) of 0.059 µM, an IC50 [2] of 0.45 µM and an IC50 (Nitric oxide synthase 1 [3]) of 0.117 µM. For the same compound, the IC50 (Nitric oxide synthase 3) was 0.785 µM.
In the case of `CN1CCN(CCOc2ccc(-c3cccc(N)n3)c3c2CCC3)CC1`, the IC50 (Nitric oxide synthase 1 [1]) is reported as 0.082 µM, the IC50 [2] is reported as 2.2 µM and the IC50 (Nitric oxide synthase 1 [3]) is reported as 0.123 µM. For the same compound, the IC50 (Nitric oxide synthase 3) was 3.03 µM.
With `CN(C)C1CCN(CCOc2ccc(-c3cccc(N)n3)c3ccccc23)CC1` the IC50 (Nitric oxide synthase 1 [1]) was 0.195 µM, the IC50 [2] was 5.75 µM and the IC50 (Nitric oxide synthase 1 [3]) was 0.203 µM. For the same compound, the IC50 (Nitric oxide synthase 3) was 7.02 µM.
For `Nc1cccc(-c2ccc(OCCN3CCCC3)c3ccccc23)n1`, the IC50 (Nitric oxide synthase 1 [1]) was 0.175 µM, the IC50 [2] was 1.77 µM and the IC50 (Nitric oxide synthase 1 [3]) was 0.25 µM. It also gave an IC50 (Nitric oxide synthase 3) of 3.71 µM.
`CN(C)CCOc1ccc(-c2cccc(N)n2)c2c1C1CCC2C1` (stereo unspecified) was tested, and the IC50 (Nitric oxide synthase 1 [1]) was 0.185 µM, the IC50 [2] was 1.08 µM and the IC50 (Nitric oxide synthase 1 [3]) was 0.12 µM. It also gave an IC50 (Nitric oxide synthase 3) of 19 µM.
In the case of `Nc1cccc(-c2ccc(OCC3CC4CCN3CC4)c3ccccc23)n1` (stereo unspecified), the IC50 (Nitric oxide synthase 1 [1]) is reported as 0.088 µM, the IC50 [2] is reported as 5.8 µM and the IC50 (Nitric oxide synthase 1 [3]) is reported as 0.0963 µM. It also gave an IC50 (Nitric oxide synthase 3) of 3.77 µM.
In the case of `Cc1ccnc(N)c1`, the IC50 (Nitric oxide synthase 1 [1]) is reported as 0.04 µM.
`CN(C)C1CCCCC1Oc1ccc(-c2cccc(N)n2)c2ccccc12` (stereo unspecified) showed an IC50 (Nitric oxide synthase 1 [1]) of 0.14 µM, an IC50 [2] of 2.37 µM and an IC50 (Nitric oxide synthase 1 [3]) of 0.161 µM. For the same compound, the IC50 (Nitric oxide synthase 3) was 13 µM.
Work on `CN1CCN(CCOc2ccc(-c3cccc(N)n3)c3ccccc23)CC1` yielded an IC50 (Nitric oxide synthase 1 [1]) of 0.306 µM, an IC50 [2] of 9.38 µM and an IC50 (Nitric oxide synthase 1 [3]) of 0.39 µM. The IC50 (Nitric oxide synthase 3) was 12 µM.
For `CN1CCN(CCOc2ccc(-c3cccc(N)n3)c3c2CCCC3)CC1`, the IC50 (Nitric oxide synthase 1 [1]) was 0.0992 µM, the IC50 [2] was 1.28 µM and the IC50 (Nitric oxide synthase 1 [3]) was 0.121 µM. It also gave an IC50 (Nitric oxide synthase 3) of 10.6 µM.
`CN1CCCC1COc1ccc(-c2cccc(N)n2)c2ccccc12` (stereo unspecified) showed an IC50 (Nitric oxide synthase 1 [1]) of 0.0805 µM, an IC50 [2] of 2.85 µM and an IC50 (Nitric oxide synthase 1 [3]) of 0.112 µM. It also gave an IC50 (Nitric oxide synthase 3) of 2.93 µM.
In the case of `Nc1cccc(-c2ccc(OCCN3CCCC3)c3c2CCCC3)n1`, the IC50 (Nitric oxide synthase 1 [1]) is reported as 0.08 µM, the IC50 [2] is reported as 0.358 µM and the IC50 (Nitric oxide synthase 1 [3]) is reported as 0.141 µM. It also gave an IC50 (Nitric oxide synthase 3) of 2.21 µM.
Compound `CN(C)CCOc1ccc(-c2cccc(N)n2)c2c1CCCCC2` has an IC50 (Nitric oxide synthase 1 [1]) of 0.093 µM, an IC50 [2] of 2.1 µM and an IC50 (Nitric oxide synthase 1 [3]) of 0.109 µM. The IC50 (Nitric oxide synthase 3) was 5.75 µM.
Work on `CN1CCC(Oc2ccc(-c3cccc(N)n3)c3ccccc23)C1` (stereo unspecified) yielded an IC50 (Nitric oxide synthase 1 [1]) of 0.048 µM, an IC50 [2] of 2.07 µM and an IC50 (Nitric oxide synthase 1 [3]) of 0.0703 µM. For the same compound, the IC50 (Nitric oxide synthase 3) was 13 µM.
For `CN(C)CCOc1ccc(-c2cccc(N)n2)c2ccccc12`, the IC50 (Nitric oxide synthase 1 [1]) was 0.167 µM, the IC50 [2] was 4.6 µM and the IC50 (Nitric oxide synthase 1 [3]) was 0.22 µM. For the same compound, the IC50 (Nitric oxide synthase 3) was 5.79 µM.
Compound `CN(C)CCOc1ccc(-c2cccc(N)n2)c2c1CCC2` has an IC50 (Nitric oxide synthase 1 [1]) of 0.0218 µM, an IC50 [2] of 0.592 µM and an IC50 (Nitric oxide synthase 1 [3]) of 0.0506 µM. For the same compound, the IC50 (Nitric oxide synthase 3) was 1.57 µM.
With `CN(C)CCOc1ccc(-c2cccc(N)n2)c2c1CCCC2` the IC50 (Nitric oxide synthase 1 [1]) was 0.034 µM, the IC50 [2] was 0.517 µM and the IC50 (Nitric oxide synthase 1 [3]) was 0.0709 µM. For the same compound, the IC50 (Nitric oxide synthase 3) was 3.53 µM.
Work on `O=[N+]([O-])c1cccc2cn[nH]c12` [7-NITROINDAZOLE] yielded an IC50 (Nitric oxide synthase 1 [3]) of 2.5 µM.
